One data set deals with TPTX rats. Description: Repeated administration study in TPTX rats, study 2 (add-on to alfacalcidol). In kind it is in vivo, rat. The following applies: alone at 75 ng kg^−1 once-daily oral, 4 weeks. The protocol:
TPTX was carried out in 6-week-old female Crl:CD (SD) rats (Charles River Laboratories). Rats with serum Ca levels of <8.0 mg dl^−1 at 5 days after surgery were used in the following experiments. The rats were divided into four groups both in study 1 and 2, each with a similar mean value of serum Ca levels and body weight. Sample sizes were determined as described in the above single administration study. To evaluate the calcemic effects of PCO371 and hPTHs, we defined a target therapeutic range for serum Ca of 7.6–11.2 mg dl^−1, which corresponds to the low normal to normal range of serum Ca levels.
TPTX rats were orally treated once daily (vehicle; alfacalcidol (Chugai Pharma Manufacturing) at 38 or 75 ng kg^−1; or alfacalcidol at 38 ng kg^−1 plus PCO371 at 6 mg kg^−1) for 4 weeks. Five or six TPTX rats were assigned to each dose group. The vehicle for alfacalcidol was medium-chain triglyceride (Chugai Pharma Manufacturing). Under isoflurane anaesthesia, jugular vein blood was collected immediately before and at 6 and 10 h after administration to measure serum Ca levels on day 1 (the first dosing day), 8, 14, 22 and 28. Urine was collected for 24 h by using metabolic cages on days 28 and 29. Serum and urine Ca levels were measured in the same way as in the single-dosing study.

A further data set concerns the target T1, hPTHR2 (Homo sapiens, UniProt P49190).
T1 construct: expressed in transfected cells; host or cells: COS-7 (transient)
Description: cAMP production assay in COS-7 cells expressing hPTHR2. In kind it is cell-based. To be noted: COS-7 cells expressing human PTHR2. The protocol:
(§1) COS-7 cells (ATCC) were seeded into a 96-well flat-bottomed plate (1.4 × 10^4 cells per 100 μl per well) and incubated overnight. The next day, the COS-7 cells were transfected by adding 10 μl of a mixture of hPTHR1, hPTHR2 or mutant hPTHR1 plasmid, rat PTHR1 or rat PTHR2 plasmid, or empty vector (0.1 μg per well), FuGENE HD Transfection Reagent (0.4 μl per well, Promega), and Opti-MEM I Reduced Serum Medium (10 μl per well, Life Technologies) to each well. […] The plate was placed in a 37 °C constant-temperature water bath for 20 min to allow the reaction to proceed. After incubation, the liquid in the wells was discarded, the wells were washed with the assay medium (100 μl per well), and the plate was frozen on dry ice. Next, 40 μl of 50 mmol l^−1 HCl was added to each well, and the plate was stored in a freezer set at ≤−20 °C. The cAMP concentrations were measured by using a cAMP EIA kit (GE Healthcare). EC50 values were determined from three independent experiments in duplicate by a non-linear regression Emax model (JMP ver.9.0.2, SAS Institute). The geometric mean of the EC50 values obtained in three experiments in duplicate was calculated using Microsoft Office Excel 2007. […]
In general terms: cAMP levels reflect the balance of adenylyl cyclase and phosphodiesterase activity.

A further data set deals with T2, rat PTHR2 (Rattus norvegicus, UniProt P70555).
T2 construct: expressed in transfected cells; host or cells: COS-7 (transient)
Description: cAMP production assay in COS-7 cells expressing rat PTHR2. It is filed as cell-based. The protocol: as §1

A short description of a further data set: in vivo. The following applies: female, Crl:CD(SD), rat, sc.
For the next data set, the system named is OVX rats. Description: Repeated administration study in OVX rats. In kind it is in vivo, rat. To be noted: day 84, all treated rats. The procedure: OVX was carried out in 32-week-old female Crl:CD (SD) rats (Charles River Laboratories). Twelve weeks after surgery, lumbar vertebral BMD (L3–L5) was measured in vivo by dual-energy X-ray absorptiometry (DXA) using a DCS-600EX-IIIR bone densitometer (Hitachi Aloka Medical), and the rats were divided into five groups, each with a similar mean value of BMD and body weight. Sample sizes were determined based on previous experiments with hPTHs and a published study with ibandronate and eldecalcitriol in our laboratories[42] (n=7–10). Then, OVX rats were treated once daily intravenously (vehicle or PCO371 at 3 or 10 mg kg^−1) or orally (vehicle or PCO371 at 30 mg kg^−1) or subcutaneously [vehicle or hPTH(1–34) at 0.9 nmol kg^−1] for 12 weeks. Ten to twelve OVX rats were assigned to each dose group. Nine rats were assigned to the sham-operated control group and were treated with vehicle for PCO371. Ten per cent DMSO (Wako Pure Chemical Industries)/10% Kolliphor EL (Sigma-Aldrich) in 10% hydroxypropyl-β-cyclodextrin (HPCD; Nihon Shokuhin Kako)/0.752% glycine (Wako Pure Chemical Industries) buffer was used as vehicle for PCO371, and phosphate-citrate buffer (pH 6.0) was used as vehicle for hPTH(1–34). To label bone-forming surfaces, tetracycline ([…], Nippon Zenyaku Kogyo) was subcutaneously injected on Day 78 and calcein (8 mg kg^−1, Dōjindo Laboratories) was subcutaneously injected on day 83. Under isoflurane anaesthesia, jugular vein blood was collected immediately before and at 1, 2, 6, 10 and 24 h after administration on day 82 to measure plasma concentration of PCO371 or on day 84 to measure serum Ca levels (o-CPC method, Wako Pure Chemical Industries). Urine was collected for 24 h from metabolic cages on days 84–85 to measure urinary collagen type 1 cross-linked C-telopeptide (CTX) by using the RatLaps ELISA System (Immunodiagnostic Systems). Under isoflurane anaesthesia, blood was collected on day 85 from the abdominal aorta to measure serum osteocalcin level by using the Rat Osteocalcin ELISA System (GE Healthcare). The lumbar spine and bilateral femurs were excised after 12 weeks of treatment. The first lumbar vertebra (L1), 3rd to 5th lumbar vertebrae (L3–L5), the right femur, and the right tibia were preserved in 70% ethanol to measure bone histomorphometry and BMD (DCS-600EX; Hitachi Aloka Medical). Measurement of bone histomorphometry was performed by the Ito Bone Histomorphometry Institute (Niigata, Japan). The second lumbar vertebra (L2) was wrapped in saline-soaked gauze and stored at −80 °C until measurement. Ultimate compressive strength (N) of the L2 vertebra was measured by using a mechanical testing machine (TK-252C; Muromachi Kikai).

The conditions of data set [1]: human; ref Calcifi Tissue Int 2010 87:485, J Bone Miner Res 2013 28:2232, J Pharmcol Exp Ther 2009 330:169; cited from earlier work.
Data set [2] is described as follows: Pharmacokinetics in normal rats.
Description: (§2) PCO371 was administered at a dose of 2, 6 or 18 mg kg^−1 orally to 7-week-old normal female rats (RccHan: WIST, JLA; three rats for each dose group), or at a dose of 2, 6 or 18 mg kg^−1 orally to 7-week-old female TPTX rats [Crl:CD(SD), Charles River Laboratories; three TPTX rats for each dose group] or at 30 mg kg^−1 orally or 3, 10 mg kg^−1 intravenously to 55-week-old OVX rats as described above. Blood samples were collected at 15 and 30 min, and 1, 2, 4, 8 and 24 h after administration. […] The concentrations of plasma PCO371 were determined by liquid chromatography–tandem mass spectrometry [LC-MS/MS (API-3200 (AB SCIEX), detection limit: 1 ng ml^−1).
Where [3] appears, read: female, Crl:CD(SD), rat, plasma, sc, 3 nmol/kg.

Where two headings read alike, the source gives them in different places.

T2 sequence (P70555 25-546): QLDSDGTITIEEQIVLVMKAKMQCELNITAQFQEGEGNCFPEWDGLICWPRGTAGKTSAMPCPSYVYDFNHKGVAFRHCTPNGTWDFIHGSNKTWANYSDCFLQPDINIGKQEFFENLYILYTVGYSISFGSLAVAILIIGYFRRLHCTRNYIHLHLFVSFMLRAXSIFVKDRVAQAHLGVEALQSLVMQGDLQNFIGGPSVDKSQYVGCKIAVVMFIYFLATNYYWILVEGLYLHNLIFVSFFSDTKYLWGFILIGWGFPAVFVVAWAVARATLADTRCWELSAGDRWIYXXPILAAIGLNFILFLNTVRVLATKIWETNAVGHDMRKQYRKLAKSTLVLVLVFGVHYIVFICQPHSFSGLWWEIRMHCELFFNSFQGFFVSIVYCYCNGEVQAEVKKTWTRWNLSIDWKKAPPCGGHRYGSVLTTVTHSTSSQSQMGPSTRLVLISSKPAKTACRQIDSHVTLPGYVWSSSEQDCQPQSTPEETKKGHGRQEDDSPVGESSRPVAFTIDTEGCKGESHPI
T1 sequence (P49190 25-550): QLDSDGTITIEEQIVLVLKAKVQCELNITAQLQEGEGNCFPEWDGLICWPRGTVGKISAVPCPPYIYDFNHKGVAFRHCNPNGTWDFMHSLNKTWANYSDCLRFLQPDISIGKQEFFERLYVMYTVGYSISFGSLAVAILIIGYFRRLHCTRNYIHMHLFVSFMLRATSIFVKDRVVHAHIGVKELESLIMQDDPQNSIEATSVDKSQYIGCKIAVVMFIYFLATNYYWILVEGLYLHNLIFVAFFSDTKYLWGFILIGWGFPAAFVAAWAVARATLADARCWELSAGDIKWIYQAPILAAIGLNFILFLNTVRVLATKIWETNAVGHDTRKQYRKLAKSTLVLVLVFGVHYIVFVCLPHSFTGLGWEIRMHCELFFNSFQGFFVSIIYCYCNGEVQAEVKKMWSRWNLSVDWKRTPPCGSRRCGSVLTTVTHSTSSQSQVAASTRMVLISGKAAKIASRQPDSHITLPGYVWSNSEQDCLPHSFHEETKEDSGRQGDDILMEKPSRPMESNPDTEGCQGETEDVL
Description for in vivo: as §2

Turning to `C=C1/C(=C\C=C2/CCC[C@]3(C)[C@@H]([C@H](C)CCCC(C)C)CC[C@@H]23)C[C@@H](O)C[C@@H]1O` [Alfacalcidol, 1α-hydroxycholecalciferol, reference compound], in the data set with TPTX rats, the “serum Ca” value is “normalized the serum Ca to within or above the target therapeutic range” and the “urinary Ca excretion” value is “considerable urinary Ca excretion”.
For the compound “TIP39: tuberoinfundibular peptide of 39 residues, the cognate ligand for PTHR2 [reference compound]”, the cAMP production entry with hPTHR2 and with rat PTHR2 was “showed an increase in cAMP production” each time.
`CC[C@H](C)[C@H](NC(=O)[C@H](CCC(=O)O)NC(=O)[C@H](CO)NC(=O)[C@@H](NC(=O)[C@@H](N)CO)C(C)C)C(=O)N[C@@H](CCC(N)=O)C(=O)N[C@@H](CC(C)C)C(=O)N[C@@H](CCSC)C(=O)N[C@@H](Cc1cnc[nH]1)C(=O)N[C@@H](CC(N)=O)C(=O)N[C@@H](CC(C)C)C(=O)NCC(=O)N[C@@H](CCCCN)C(=O)N[C@@H](Cc1cnc[nH]1)C(=O)N[C@@H](CC(C)C)C(=O)N[C@@H](CC(N)=O)C(=O)N[C@@H](CO)C(=O)N[C@@H](CCSC)C(=O)N[C@@H](CCC(=O)O)C(=O)N[C@@H](CCCN=C(N)N)C(=O)N[C@H](C(=O)N[C@@H](CCC(=O)O)C(=O)N[C@@H](Cc1c[nH]c2ccccc12)C(=O)N[C@@H](CC(C)C)C(=O)N[C@@H](CCCN=C(N)N)C(=O)N[C@@H](CCCCN)C(=O)N[C@@H](CCCCN)C(=O)N[C@@H](CC(C)C)C(=O)N[C@@H](CCC(N)=O)C(=O)N[C@@H](CC(=O)O)C(=O)N[C@H](C(=O)N[C@@H](Cc1cnc[nH]1)C(=O)N[C@@H](CC(N)=O)C(=O)N[C@@H](Cc1ccccc1)C(=O)O)C(C)C)C(C)C` [hPTH(1–34), reference compound]: the half-life is 15 min in the data set “in vivo” and 18 ± 6 min in the data set “in vivo” (3 nmol/kg). Also, the “serum Ca” value in the data set on OVX rats is “within the normal range”. Also, the Tmax in data set [1] is 30 min; in data set [2] (setting [3]) it was 6 ± 6 min; in data set [2] (rat (Table 1)), 5 min. Also, the AUC(0-inf) in data set [2] (setting [3]) stood at 0.99 ± 0.17 ng·h/mL. Also, the Cmax in data set [2] (setting [3]) is 2.42 ± 0.53 ng/mL; in data set [2] (rat, plasma, sc, 0.9 nmol/kg), roughly 0.125 ng/mL. Besides, the bioavailability in data set [2] (setting [3]) was 22%.

A word on the half-life: it is how long it takes for the measured level to halve. Lower therefore signals rapid decline. In general, Tmax refers to the time from dosing to the highest level. For orientation: AUC(0-inf) means total exposure, with the tail of the curve extrapolated. As usually defined, the Cmax is the highest concentration seen after dosing. As a reminder, the bioavailability is the share of a dose that reaches the circulation, judged against a reference dose that is usually intravenous.

The values are drawn from paper PMC5120204, “Identification of an orally active small-molecule PTHR1 agonist for the treatment of hypoparathyroidism” (Nature Communications, 2016).
